Experimental data: patent US10202364B2, “Forms and compositions of an ERK inhibitor” (Celgene CAR LLC, priority 2014, dated 2019)
Like-named read-outs stand apart in the source and are kept apart here. Values belong to the compound of their own block, whether it stands above or below them.

Columns and labels:
[1] = Free base competitive slurries / form conversion (XRPD and DSC); type: physicochemical; conditions: compound 1 free base, stirred in methanol at room temperature for 24 hours
Protocol: Free Base Competitive Slurries:
Three competitive slurry experiments were performed:
1: Form A (20.0 mg)+Form C (20.4 mg) in 0.4 ml ethyl acetate
2: Form B (15.7 mg)+Form C (15.6 mg) in 0.3 ml ethyl acetate
3: Form A (13.3 mg)+Form B (11.5 mg) in 0.3 ml ethyl acetate
The three slurries were stirred vigorously for three days. Solids were then filtered and dried.
About 20 mg Form C was stirred in methanol (˜2 mL) at room temperature for 24 hours. Solids were filtered and dried.

[2] = Single oral dose pharmacokinetic (PK) study in dogs, fasted and fed; type: in vivo; conditions: 15 mg/kg oral suspension; for AUC(0-t) / Cmax: both sexes, dog, in vivo, po, 15 mg/kg
Protocol: The pharmacokinetics of compound 1 (free base, administered to dosing group 1), compound 2 (phosphate salt, administered to dosing group 4), compound 4 (hydrochloride salt, administered to dosing group 2), compound 5 (bromide salt, administered to dosing group 5), and compound 6 (sulfate salt, administered to dosing group 3) were evaluated in dogs (2/sex/group) in a parallel design study. In addition, the effect of food on the systemic exposure to compounds 1, 2, 4, 5 and 6 was also evaluated. Compounds 1, 2, 4, 5 and 6 were orally administered at 15 mg/kg to dogs in a fasted state (overnight fast) on day 1 and administered under fed conditions (a meal was provided one hour prior to dosing) on day 9. Doses were administered as a suspension in 5% Captisol/0.2% Tween 80/0.05M Citrate buffer (compound 1) and 5% Captisol/0.2% Tween (compounds 2, 4, 5 and 6). Animals were habituated (days 2 to 8) to consume their entire daily ration (˜400 g) in 1 hour. Pharmacokinetic samples were collected on days 1 and 9 at 0, 0.5, 1, 2, 4, 6, 8, 12, and 24 hours after dosing.

[3] = Solubility in water at ambient temperature; type: physicochemical; conditions: for pH at 48 hrs: pH of the solubility sample in water at 48 hrs; for Conc. (μg/mL) at 24 hours / Conc. (μg/mL) at 48 hours: water, ambient temperature, free base-equivalent value, HPLC/UV; for Conc. (μg/mL) at 24 hours: shaken 24 hours; for Conc. (μg/mL) at 48 hours: shaken 48 hours
Protocol: Each of compounds 1 through 9 were weighed into separate 8 mL clear glass vials. After addition of 3.2 mL of water, the vials were capped and shaken on an orbital shaker at 300 RPM at ambient temperature for 24 hours. The samples were removed from the shaker and the pH of each was measured using a calibrated pH meter. Next, a portion of the each sample was withdrawn and filtered using a PVDF-membrane syringe filter. The filtrate was analyzed using HPLC/UV with appropriate dilution. The solubility was reported as free base-equivalent value because the free base was used as the standard for HPLC analysis. The rest of the samples were shaken for another 24 hours for 48-hour solubility measurement using the same procedure. After the 48-hour solubility tests were run, the solid residues were recovered through filtration using 0.2 μm Nylon-membrane centrifuge tube filters at 14000 RPM for 5 min and analyzed using XRPD.
For the bis-phosphate complex and bis-sulfate salt, measurements were only performed at the 24-hour time point.

[4] = system: one or both of ERK1 and ERK2 kinases; conditions: see Table A of the '230 publication; cited from earlier work
[5] = Hygroscopicity by Dynamic Vapor Sorption (DVS); type: physicochemical; conditions: at 95% relative humidity
Protocol: Hygroscopicity was determined on a Surface Measurement Systems DVS-1 or DVS-Advantage Dynamic Vapor Sorption analyzer. A typical sample size of 5 to 20 mg was loaded into the DVS instrument sample pan and the sample was analyzed on a DVS automated sorption analyzer at room temperature. The relative humidity (RH) was increased from 0 or 5% to 90 or 95% RH at 5 or 10% RH steps. The RH was then decreased in a similar manner to accomplish a full absorption/desorption cycle. In some cases a second absorption/desorption cycle was performed.

[6] = Phosphate interconversions from polymorph screen (slurries, XRPD); type: physicochemical; conditions: RT, 5 days
Description: Phosphate Interconversions

[7] = fasted, day 1, mean, read-out: AUClast, Day 1 (Fasted)
[8] = fasted, day 1, mean, read-out: Cmax, Day 1 (Fasted)
[9] = fed, day 9, mean, read-out: AUClast, Day 9 (Fed)
[10] = fed, day 9, mean, read-out: Cmax, Day 9 (Fed)

form after slurry (XRPD and DSC) [1]: converted to Form B
AUClast, Day 1 (Fasted) ([2]; fasted, day 1, mean): 286 ng·h/mL
Cmax, Day 1 (Fasted) ([2]; fasted, day 1, mean): 0.0981 µg/mL
AUClast, Day 9 (Fed) ([2]; fed, day 9, mean): 1890 ng·h/mL
Cmax, Day 9 (Fed) ([2]; fed, day 9, mean): 0.293 µg/mL
SMILES: C=CC(=O)Nc1cc(C)ccc1Nc1nc(Nc2cc(OC)ncc2C)ncc1C(F)(F)F [Compound 1, Form C, N-(2-((2-((2-methoxy-5-methylpyridin-4-yl)amino)-5-(trifluoromethyl)pyrimidin-4-yl)amino)-5-methylphenyl)acrylamide]

pH at 48 hrs [3]: 6.33
Conc. (μg/mL) at 24 hours [3]: 0.07 µg/mL
Conc. (μg/mL) at 48 hours [3]: 0.05 µg/mL
SMILES: C=CC(=O)Nc1cc(C)ccc1Nc1nc(Nc2cc(OC)ncc2C)ncc1C(F)(F)F [Compound 1, N-(2-((2-((2-methoxy-5-methylpyridin-4-yl)amino)-5-(trifluoromethyl)pyrimidin-4-yl)amino)-5-methylphenyl)acrylamide]
inhibition of one or both of ERK1 and ERK2 kinases [4]: covalent, irreversible inhibition

water uptake [5]: Up to 3.8%
AUC(0-t) [2, 7]: 1080 ng·h/mL
Cmax [2, 8]: 0.345 µg/mL
AUC(0-t) [2, 9]: 3880 ng·h/mL
Cmax [2, 10]: 0.79 µg/mL
SMILES: C=CC(=O)Nc1cc(C)ccc1Nc1nc(Nc2cc(OC)ncc2C)ncc1C(F)(F)F.O=P(O)(O)O [Compound 2, Form A]

pH at 48 hrs [3]: 2.48
Conc. (μg/mL) at 24 hours [3]: 19.40 µg/mL
Conc. (μg/mL) at 48 hours [3]: 91.69 µg/mL
SMILES: C=CC(=O)Nc1cc(C)ccc1Nc1nc(Nc2cc(OC)ncc2C)ncc1C(F)(F)F.O=P(O)(O)O [Compound 2]

Conc. (μg/mL) at 24 hours [3]: 113 µg/mL
SMILES: C=CC(=O)Nc1cc(C)ccc1Nc1nc(Nc2cc(OC)ncc2C)ncc1C(F)(F)F [Compound 3]

AUC(0-t) [2, 7]: 856 ng·h/mL
Cmax [2, 8]: 0.323 µg/mL
AUC(0-t) [2, 9]: 3350 ng·h/mL
Cmax [2, 10]: 0.818 µg/mL
SMILES: C=CC(=O)Nc1cc(C)ccc1Nc1nc(Nc2cc(OC)ncc2C)ncc1C(F)(F)F.Cl [Compound 4, Form A]

pH at 48 hrs [3]: 2.29
Conc. (μg/mL) at 24 hours [3]: 162.33 µg/mL
Conc. (μg/mL) at 48 hours [3]: 134.08 µg/mL
SMILES: C=CC(=O)Nc1cc(C)ccc1Nc1nc(Nc2cc(OC)ncc2C)ncc1C(F)(F)F.Cl [Compound 4]

AUC(0-t) [2, 7]: 1680 ng·h/mL
Cmax [2, 8]: 0.393 µg/mL
AUC(0-t) [2, 9]: 5030 ng·h/mL
Cmax [2, 10]: 0.826 µg/mL
SMILES: Br.C=CC(=O)Nc1cc(C)ccc1Nc1nc(Nc2cc(OC)ncc2C)ncc1C(F)(F)F [Compound 5, Form A]

pH at 48 hrs [3]: 2.27
Conc. (μg/mL) at 24 hours [3]: 190.63 µg/mL
Conc. (μg/mL) at 48 hours [3]: 207.42 µg/mL
SMILES: Br.C=CC(=O)Nc1cc(C)ccc1Nc1nc(Nc2cc(OC)ncc2C)ncc1C(F)(F)F [Compound 5]

AUClast, Day 1 (Fasted) ([2]; fasted, day 1, mean): 1120 ng·h/mL
Cmax, Day 1 (Fasted) ([2]; fasted, day 1, mean): 0.364 µg/mL
AUClast, Day 9 (Fed) ([2]; fed, day 9, mean): 5590 ng·h/mL
Cmax, Day 9 (Fed) ([2]; fed, day 9, mean): 0.74 µg/mL
SMILES: C=CC(=O)Nc1cc(C)ccc1Nc1nc(Nc2cc(OC)ncc2C)ncc1C(F)(F)F [Compound 6, Form A]

pH at 48 hrs [3]: 1.98
Conc. (μg/mL) at 24 hours [3]: 560.02 µg/mL
Conc. (μg/mL) at 48 hours [3]: 409.83 µg/mL
SMILES: C=CC(=O)Nc1cc(C)ccc1Nc1nc(Nc2cc(OC)ncc2C)ncc1C(F)(F)F [Compound 6]

Conc. (μg/mL) at 24 hours [3]: 1170 µg/mL
SMILES: C=CC(=O)Nc1cc(C)ccc1Nc1nc(Nc2cc(OC)ncc2C)ncc1C(F)(F)F [Compound 7]

pH at 48 hrs [3]: 2.00
Conc. (μg/mL) at 24 hours [3]: 218.34 µg/mL
Conc. (μg/mL) at 48 hours [3]: 184.83 µg/mL
SMILES: C=CC(=O)Nc1cc(C)ccc1Nc1nc(Nc2cc(OC)ncc2C)ncc1C(F)(F)F.Cc1ccc(S(=O)(=O)O)cc1 [Compound 8]

pH at 48 hrs [3]: 2.10
Conc. (μg/mL) at 24 hours [3]: 173.63 µg/mL
Conc. (μg/mL) at 48 hours [3]: 143.49 µg/mL
SMILES: C=CC(=O)Nc1cc(C)ccc1Nc1nc(Nc2cc(OC)ncc2C)ncc1C(F)(F)F.O=S(=O)(O)c1ccccc1 [Compound 9]

XRPD Result ([6]; slurry in EtOH): Form A + free base
XRPD Result ([6]; slurry in MeCN): Form A
XRPD Result ([6]; slurry in MeCN/water (1:1)): free base (Form D)
XRPD Result ([6]; slurry in MeOH): free base (Form B)
XRPD Result ([6]; slurry in acetone): Form A
SMILES: C=CC(=O)Nc1cc(C)ccc1Nc1nc(Nc2cc(OC)ncc2C)ncc1C(F)(F)F.O=P(O)(O)O [Form B]
